Measurements as given in US11708348B2, “Protease inhibitors for treatment of coronavirus infections” (The Scripps Research Institute, priority 2021, dated 2023).
Where two headings read alike, the source gives them in different places.

System: SARS-CoV-2 strain USA-WA1/2020
Experiment: microbe, parasite or virus in culture
Format: cell-based
Conditions: Severe acute respiratory syndrome coronavirus 2, HeLa-ACE2, 24 h, HeLa-ACE2 cells, SARS-CoV-2 infection, 24 h, read-out: EC50, uM (Hela)

SMILES: CC(C)C[C@H](NC(=O)C(N)=O)C(=O)N[C@@H](C[C@@H]1CCNC1=O)C(=O)COC(F)(F)F [Compound 239, N1-((S)-4-methyl-1-oxo-1-(((S)-3-oxo-1-((S)-2-oxopyrrolidin-3-yl)-4-(trifluoromethoxy)butan-2-yl)amino)pentan-2-yl)oxalamide]
- EC50 (bound printed in cell): > 1 µM

SMILES: O=C1NCC[C@H]1C[C@H](NC(=O)[C@@H]1CC2(CC2)CN1C(=O)[C@H](O)c1ccc(F)cc1)C(=O)COC(F)(F)F [Compound 403, (S)-5-((R)-2-(4-fluorophenyl)-2-hydroxyacetyl)-N-((S)-3-oxo-1-((S)-2-oxopyrrolidin-3-yl)-4-(trifluoromethoxy)butan-2-yl)-5-azaspiro[2.4]heptane-6-carboxamide]
- EC50: 0.05 to 0.2 µM

SMILES: O=C1NCC[C@H]1C[C@H](NC(=O)[C@@H]1CC2(CC2)CN1C(=O)[C@H](O)C1CCC1)C(=O)COC(F)(F)F [Compound 760, (S)-5-((R)-2-cyclobutyl-2-hydroxyacetyl)-N-((S)-3-oxo-1-((S)-2-oxopyrrolidin-3-yl)-4-(trifluoromethoxy)butan-2-yl)-5-azaspiro[2.4]heptane-6-carboxamide]
- EC50: 0.05 to 0.2 µM

SMILES: O=C(Nc1ccccc1F)C(=O)N1C[C@H]2C[C@]1(C(=O)N[C@@H](C[C@@H]1CCNC1=O)C(=O)COC(F)(F)F)C2 [Compound 562, (1 s,4R)-2-(2-((2-fluorophenyl)amino)-2-oxoacetyl)-N-((S)-3-oxo-1-((S)-2-oxopyrrolidin-3-yl)-4-(trifluoromethoxy)butan-2-yl)-2-azabicyclo-[2.1.1]hexane-1-carboxamide]
- EC50 (given as bound): > 1 µM

SMILES: CC(C)(C)C[C@H](NC(=O)C(=O)NCC(F)(F)F)C(=O)N[C@@H](C[C@@H]1CCNC1=O)C(=O)COC(F)(F)F [Compound 505, N1-((S)-4,4-dimethyl-1-oxo-1-(((S)-3-oxo-1-((S)-2-oxopyrrolidin-3-yl)-4-(trifluoromethoxy)butan-2-yl)amino)pentan-2-yl)-N2-(2,2,2-trifluoroethyl)-oxalamide]
- EC50: < 0.05 µM

SMILES: CC(C)C[C@H](C(=O)N1CC2(CC2)C[C@H]1C(=O)N[C@@H](C[C@@H]1CCNC1=O)C(=O)COC(F)(F)F)N(C)C(=O)OC(C)(C)C [Compound 645, tert-butyl methyl((R)-4-methyl-1-oxo-1-((S)-6-(((S)-3-oxo-1-((S)-2-oxopyrrolidin-3-yl)-4-(trifluoromethoxy)butan-2-yl)carbamoyl)-5-azaspiro[2.4]heptan-5-yl)pentan-2-yl)carbamate]
- EC50: 0.05 to 0.2 µM

SMILES: COc1cccc2[nH]c(C(=O)N[C@@H](CC(C)C)C(=O)N[C@@H](C[C@@H]3CCNC3=O)C(=O)COCC(F)(F)F)cc12 [Compound 162, 4-methoxy-N-((S)-4-methyl-1-oxo-1-(((S)-3-oxo-1-((S)-2-oxopyrrolidin-3-yl)-4-(2,2,2-trifluoroethoxy)butan-2-yl)amino)pentan-2-yl)-1H-indole-2-carboxamide]
- EC50 (cells given as a bound): > 1 µM

SMILES: CC(C)(C)CC(O)C(=O)N1C[C@H]2[C@@H]([C@H]1C(=O)N[C@@H](C[C@@H]1CCNC1=O)C(=O)COC(F)(F)F)C2(C)C (stereo partly drawn) [Compound 347, (1R,2S,5S)-3-(2-hydroxy-4,4-dimethylpentanoyl)-6,6-dimethyl-N-((S)-3-oxo-1-((S)-2-oxopyrrolidin-3-yl)-4-(trifluoromethoxy)butan-2-yl)-3-azabicyclo-[3.1.0]hexane-2-carboxamide]
- EC50 (class symbols): < 0.05 µM

SMILES: CC1(C)[C@@H]2[C@@H](C(=O)N[C@@H](C[C@@H]3CCNC3=O)C(=O)COC(F)(F)F)N(C(=O)C(=O)NC34CC(F)(C3)C4)C[C@@H]21 [Compound 486, (1R,2S,5S)-3-(2-((3-fluorobicyclo[1.1.1]-pentan-1-yl)amino)-2-oxoacetyl)-6,6-dimethyl-N-((S)-3-oxo-1-((S)-2-oxopyrrolidin-3-yl)-4-(trifluoromethoxy)butan-2-yl)-3-azabicyclo[3.1.0]-hexane-2-carboxamide]
- EC50: 0.05 to 0.2 µM

SMILES: COc1ccc(C(C)=O)cc1CC(=O)N[C@@H](CC(C)C)C(=O)N[C@@H](C[C@@H]1CCNC1=O)C(=O)COc1c(F)c(F)cc(F)c1F [Compound 154, (S)-2-(2-(5-acetyl-2-methoxyphenyl)acetamido)-4-methyl-N—((S)-3-oxo-1-((S)-2-oxopyrrolidin-3-yl)-4-(2,3,5,6-tetrafluorophenoxy)butan-2-yl)pentanamide]
- EC50 (class symbols): < 0.05 µM

SMILES: O=C1NCC[C@H]1C[C@H](NC(=O)[C@@H]1[C@H]2CCC[C@H]2CN1C(=O)c1cc(C(F)(F)F)on1)C(=O)COC(F)(F)F [Compound 483, (1S,3aR,6aS)-N-((S)-3-oxo-1-((S)-2-oxopyrrolidin-3-yl)-4-(trifluoromethoxy)butan-2-yl)-2-(5-(trifluoromethyl)-isoxazole-3-carbonyl)octahydro-cyclopenta[c]pyrrole-l-carboxamide]
- EC50: 0.05 to 0.2 µM

SMILES: CC[C@](C)(O)C(=O)N1C[C@H]2[C@@H]([C@H]1C(=O)N[C@@H](C[C@@H]1CCNC1=O)C(=O)COC(F)(F)F)C2(C)C [Compound 367, (1R,2S,5S)-3-((S)-2-hydroxy-2-methylbutanoyl)-6,6-dimethyl-N-((S)-3-oxo-1-((S)-2-oxopyrrolidin-3-yl)-4-(trifluoromethoxy)butan-2-yl)-3-azabicyclo[3.1.0]-hexane-2-carboxamide]
- EC50 (bound printed in cell): > 1 µM

SMILES: O=C(Nc1ccccc1F)C(=O)N[C@@H](CC1CCCC1(F)F)C(=O)N[C@@H](C[C@@H]1CCNC1=O)C(=O)COC(F)(F)F (stereo partly drawn) [Compound 227, N1-((2S)-3-(2,2-difluoro-cyclopentyl)-1-oxo-1-(((S)-3-oxo-1-((S)-2-oxopyrrolidin-3-yl)-4-(trifluoromethoxy)butan-2-yl)amino)propan-2-yl)-N2-(2-fluorophenyl)-oxalamide]
- EC50 (class symbols): < 0.05 µM

SMILES: CC(C)(C)[C@H](NC(=O)NC1CC1)C(=O)N1C[C@H]2[C@@H]([C@H]1C(=O)N[C@@H](C[C@@H]1CCNC1=O)C(=O)COC(F)(F)F)C2(C)C [Compound 634, (1R,2S,5S)-3-((S)-2-(3-cyclopropylureido)-3,3-dimethylbutanoyl)-6,6-dimethyl-N-((S)-3-oxo-1-((S)-2-oxopyrrolidin-3-yl)-4-(trifluoromethoxy)butan-2-yl)-3-azabicyclo[3.1.0]hexane-2-carboxamide]
- EC50 (given as a bound, not a class symbol): > 1 µM

SMILES: CCC[C@@H](O)C(=O)N1C[C@H]2[C@@H]([C@H]1C(=O)N[C@@H](C[C@@H]1CCNC1=O)C(=O)COC(F)(F)F)C2(C)C [Compound 378, (1R,2S,5S)-3-((R)-2-hydroxypentanoyl)-6,6-dimethyl-N-((S)-3-oxo-1-((S)-2-oxopyrrolidin-3-yl)-4-(trifluoromethoxy)butan-2-yl)-3-azabicyclo[3.1.0]-hexane-2-carboxamide]
- EC50 (class symbols): < 0.05 µM

SMILES: Cc1cccc(F)c1NC(=O)C(=O)N[C@@H](CC(C)C)C(=O)N[C@@H](C[C@@H]1CCNC1=O)C(=O)COc1c(F)c(F)cc(F)c1F [Compound 82, N1-(2-fluoro-6-methylphenyl)-N2-((S)-4-methyl-1-oxo-1-(((S)-3-oxo-1-((S)-2-oxopyrrolidin-3-yl)-4-(2,3,5,6-tetrafluorophenoxy)butan-2-yl)amino)pentan-2-yl)oxalamide]
- EC50 (class symbols): < 0.05 µM

SMILES: O=C1NCC[C@H]1C[C@H](NC(=O)[C@@H]1CC2(CC2)CN1C(=O)CCNS(=O)(=O)Nc1ccccc1)C(=O)COC(F)(F)F [Compound 670, (S)-N-((S)-3-oxo-1-((S)-2-oxopyrrolidin-3-yl)-4-(trifluoromethoxy)butan-2-yl)-5-(3-((N-phenylsulfamoyl)amino)propanoyl)-5-azaspiro[2.4]heptane-6-carboxamide]
- EC50: 0.2 to 0.5 µM
